Data from ChEMBL document CHEMBL5537135, “Novel antimicrobial peptides modified with fluorinated sulfono-γ-AA having high stability and targeting multidrug-resistant bacteria infections” (Eur J Med Chem, 2024).
≈ marks a conversion by molar mass, not a printed value. Calls of active or inactive are those of the source. The calls are words filed in the database; no cut-off is given here.

What was measured:
Salmonella typhimurium = test: Antimicrobial activity against Salmonella typhimurium ATCC 14028 assessed as inhibition of visible bacterial growth incubated for 18 hrs by broth-dilution method; assay type: functional, Salmonella enterica subsp. enterica serovar Typhimurium
Acinetobacter baumannii = test: Antimicrobial activity against Acinetobacter baumannii ATCC 19606 assessed as inhibition of visible bacterial growth incubated for 18 hrs by broth-dilution method; assay type: functional
Bacillus subtilis = test: Antimicrobial activity against Bacillus subtilis ATCC 23857 assessed as inhibition of visible bacterial growth incubated for 18 hrs by broth-dilution method; assay type: functional
Pseudomonas aeruginosa [1] = test: Antimicrobial activity against Pseudomonas aeruginosa ATCC 27853 assessed as inhibition of visible bacterial growth incubated for 18 hrs by broth-dilution method; assay type: functional
Escherichia coli = test: Antimicrobial activity against Escherichia coli ATCC 25922 assessed as inhibition of visible bacterial growth incubated for 18 hrs by broth-dilution method; assay type: functional
Staphylococcus aureus [2] = test: Antibacterial activity against methicillin-resistant Staphylococcus aureus ATCC 33591 infected in full-thickness wound BALB/c mouse model assessed as reduction in inflammatory infiltration at 1 mg/kg, ip administered for 1 to 48 hrs and measured after 3 days; assay type: functional, organism-based; conditions: time 1-120 hrs
[3] = Toxicity in mouse assessed as sluggish behavior at 20 mg/kg, ip measured for 30 to 60 mins; assay type: organism-based; conditions: in vivo, time 30-60 min
[4] = tested on: Staphylococcus epidermidis; test: Antimicrobial activity against Staphylococcus epidermidis ATCC 12228 assessed as inhibition of visible bacterial growth incubated for 18 hrs by broth-dilution method; assay type: functional
Staphylococcus aureus [5] = test: Antimicrobial activity against methicillin-resistant Staphylococcus aureus 7 assessed as inhibition of visible bacterial growth incubated for 18 hrs by broth-dilution method; assay type: functional
Staphylococcus aureus [6] = test: Antimicrobial activity against methicillin-resistant Staphylococcus aureus 6 assessed as inhibition of visible bacterial growth incubated for 18 hrs by broth-dilution method; assay type: functional
Pseudomonas aeruginosa [7] = test: Antimicrobial activity against multidrug-resistant Pseudomonas aeruginosa 061 assessed as inhibition of visible bacterial growth incubated for 18 hrs by broth-dilution method; assay type: functional
Pseudomonas aeruginosa [8] = test: Antimicrobial activity against multidrug-resistant Pseudomonas aeruginosa 073 assessed as inhibition of visible bacterial growth incubated for 18 hrs by broth-dilution method; assay type: functional
Pseudomonas aeruginosa [9] = test: Antimicrobial activity against multidrug-resistant Pseudomonas aeruginosa 516 assessed as inhibition of visible bacterial growth incubated for 18 hrs by broth-dilution method; assay type: functional
Cell membrane [10] = test: Induction of cytoplasmic membrane depolarization in methicillin-resistant Staphylococcus aureus ATCC 33591 assessed as increase in fluorescence intensity at 4 times MIC by DiSC35 dye-based fluorescence assay
Pseudomonas aeruginosa [11] = test: Antimicrobial activity against multidrug-resistant Pseudomonas aeruginosa 085 assessed as inhibition of visible bacterial growth incubated for 18 hrs by broth-dilution method; assay type: functional
Pseudomonas aeruginosa [12] = test: Antibacterial activity against Pseudomonas aeruginosa ATCC 27853 infected in C57BL/6 mouse pneumonia model assessed as […] at 5 mg/kg, ip administered for 1 to 48 hrs and measured after 3 days by H and E staining based analysis; assay type: functional, organism-based; conditions: time 1-120 hrs
Staphylococcus aureus [13] = test: Antimicrobial activity against methicillin-resistant Staphylococcus aureus 2 assessed as inhibition of visible bacterial growth incubated for 18 hrs by broth-dilution method; assay type: functional
Pseudomonas aeruginosa [14] = test: Bactericidal activity against Pseudomonas aeruginosa ATCC 27853 assessed as reduction in viable bacteria at 4 times MIC measured for 30 min by time-kill assay; assay type: functional, organism-based
Staphylococcus aureus [15] = test: Antimicrobial activity against methicillin-resistant Staphylococcus aureus 9 assessed as inhibition of visible bacterial growth incubated for 18 hrs by broth-dilution method; assay type: functional
Pseudomonas aeruginosa [16] = test: Antimicrobial activity against multidrug-resistant Pseudomonas aeruginosa 050 assessed as inhibition of visible bacterial growth incubated for 18 hrs by broth-dilution method; assay type: functional
Pseudomonas aeruginosa [17] = test: Antimicrobial activity against multidrug-resistant Pseudomonas aeruginosa 157 assessed as inhibition of visible bacterial growth incubated for 18 hrs by broth-dilution method; assay type: functional
Staphylococcus aureus [18] = test: Antimicrobial activity against methicillin-resistant Staphylococcus aureus 1 assessed as inhibition of visible bacterial growth incubated for 18 hrs by broth-dilution method; assay type: functional
Pseudomonas aeruginosa [19] = test: Antimicrobial activity against multidrug-resistant Pseudomonas aeruginosa 156 assessed as inhibition of visible bacterial growth incubated for 18 hrs by broth-dilution method; assay type: functional
Staphylococcus aureus [20] = test: Antimicrobial activity against methicillin-resistant Staphylococcus aureus 8 assessed as inhibition of visible bacterial growth incubated for 18 hrs by broth-dilution method; assay type: functional
Pseudomonas aeruginosa [21] = test: Antimicrobial activity against multidrug-resistant Pseudomonas aeruginosa 124 assessed as inhibition of visible bacterial growth incubated for 18 hrs by broth-dilution method; assay type: functional
Staphylococcus aureus [22] = test: Antimicrobial activity against Staphylococcus aureus ATCC 25923 assessed as inhibition of visible bacterial growth incubated for 18 hrs by broth-dilution method; assay type: functional
Staphylococcus aureus [23] = test: Antimicrobial activity against methicillin-resistant Staphylococcus aureus 4 assessed as inhibition of visible bacterial growth incubated for 18 hrs by broth-dilution method; assay type: functional
Pseudomonas aeruginosa [24] = test: Antibacterial activity against Pseudomonas aeruginosa ATCC 27853 infected in C57BL/6 mouse pneumonia model assessed as log reduction in bacterial load in lung at 5 mg/kg, ip administered for 1 to 48 hrs and measured after 3 days; assay type: functional; conditions: time 1-120 hrs
Cell membrane [25] = test: Induction of membrane depolarization in Pseudomonas aeruginosa ATCC 27853 assessed as increase in fluorescence intensity at 4 times MIC by DiSC35 dye-based fluorescence assay; assay type: cell membranes
Staphylococcus aureus [26] = test: Drug resistance, ratio of MIC for methicillin-resistant Staphylococcus aureus ATCC 33591 after 20 days exposure to MIC for methicillin-resistant Staphylococcus aureus ATCC 33591 during first exposure; assay type: functional, organism-based; conditions: time 20.0 day
Staphylococcus aureus [27] = test: Antimicrobial activity against methicillin-resistant Staphylococcus aureus ATCC 33591 assessed as inhibition of visible bacterial growth incubated for 18 hrs by broth-dilution method; assay type: functional
Pseudomonas aeruginosa [28] = test: Antimicrobial activity against multidrug-resistant Pseudomonas aeruginosa 119 assessed as inhibition of visible bacterial growth incubated for 18 hrs by broth-dilution method; assay type: functional
Staphylococcus aureus [29] = test: Antimicrobial activity against methicillin-resistant Staphylococcus aureus 10 assessed as inhibition of visible bacterial growth incubated for 18 hrs by broth-dilution method; assay type: functional
Staphylococcus aureus [30] = test: Antimicrobial activity against methicillin-resistant Staphylococcus aureus 3 assessed as inhibition of visible bacterial growth incubated for 18 hrs by broth-dilution method; assay type: functional
Pseudomonas aeruginosa [31] = test: Antimicrobial activity against multidrug-resistant Pseudomonas aeruginosa 125 assessed as inhibition of visible bacterial growth incubated for 18 hrs by broth-dilution method; assay type: functional
Staphylococcus aureus [32] = test: Antimicrobial activity against methicillin-resistant Staphylococcus aureus 5 assessed as inhibition of visible bacterial growth incubated for 18 hrs by broth-dilution method; assay type: functional

For `CN[C@H](CC(C)C)C(=O)N[C@H]1C(=O)N[C@@H](CC(N)=O)C(=O)N[C@H]2C(=O)N[C@H]3C(=O)N[C@H](C(=O)N[C@H](C(=O)O)c4cc(O)cc(O)c4-c4cc3ccc4O)[C@H](O)c3ccc(c(Cl)c3)Oc3cc2cc(c3O[C@@H]2O[C@H](CO)[C@@H](O)[C@H](O)[C@H]2O[C@H]2C[C@](C)(N)[C@H](O)[C@H](C)O2)Oc2ccc(cc2Cl)[C@H]1O` [VANCOMYCIN], the MIC (Salmonella typhimurium; Salmonella enterica) was 128 µg/mL (≈ 88.3 µM), the MIC (Acinetobacter baumannii) was 32 µg/mL (≈ 22.1 µM) and the MIC (Bacillus subtilis) was 1 µg/mL (≈ 0.69 µM). The MIC (Pseudomonas aeruginosa [1]) was 256 µg/mL (≈ 177 µM), the MIC (Escherichia coli) was 256 µg/mL (≈ 177 µM) and the Activity (Staphylococcus aureus [2]) was “Active”.

With POLYMYXIN B [listing 1 of 2 here] the Activity [3] was “Toxic”.

Work on POLYMYXIN B [listing 2 of 2 here] yielded an MIC [4] of 8 µg/mL, an MIC (Staphylococcus aureus [5]) of 16 µg/mL and an MIC (Staphylococcus aureus [6]) of 8 µg/mL. The MIC (Pseudomonas aeruginosa [7]) was 1 µg/mL, the MIC (Salmonella typhimurium; Salmonella enterica subsp. enterica serovar Typhimurium) was 2 µg/mL and the MIC (Pseudomonas aeruginosa [8]) was 1 µg/mL. For the same molecule, the MIC (Acinetobacter baumannii) was 4 µg/mL, the MIC (Pseudomonas aeruginosa [9]) was 1 µg/mL and the Activity (Cell membrane [10]) was “inactive”. The MIC (Pseudomonas aeruginosa [11]) was 1 µg/mL, the Activity (Pseudomonas aeruginosa [12]) was “inactive” and the MIC (Bacillus subtilis) was 8 µg/mL. The MIC (Staphylococcus aureus [13]) was 8 µg/mL, the MIC (Pseudomonas aeruginosa [1]) was 1 µg/mL and the Activity (Pseudomonas aeruginosa [14]) was “Active”. For the same molecule, the MIC (Staphylococcus aureus [15]) was 16 µg/mL, the MIC (Pseudomonas aeruginosa [16]) was 1 µg/mL and the MIC (Pseudomonas aeruginosa [17]) was 1 µg/mL. It also gave an MIC (Staphylococcus aureus [18]) of 8 µg/mL, an MIC (Pseudomonas aeruginosa [19]) of 256 µg/mL and an MIC (Staphylococcus aureus [20]) of 16 µg/mL. For the same molecule, the MIC (Pseudomonas aeruginosa [21]) was 1 µg/mL, the MIC (Staphylococcus aureus [22]) was 8 µg/mL and the MIC (Staphylococcus aureus [23]) was 16 µg/mL. The log(activity) (Pseudomonas aeruginosa [24]) was 4.54, the Activity (Cell membrane [25]) was “inactive” and the MIC (Escherichia coli) was 1 µg/mL. For the same molecule, the Ratio (Staphylococcus aureus [26]) was 8, the MIC (Staphylococcus aureus [27]) was 16 µg/mL and the MIC (Pseudomonas aeruginosa [28]) was 1 µg/mL. For the same molecule, the MIC (Staphylococcus aureus [29]) was 16 µg/mL, the MIC (Staphylococcus aureus [30]) was 8 µg/mL and the MIC (Pseudomonas aeruginosa [31]) was 1 µg/mL. For the same molecule, the MIC (Staphylococcus aureus [32]) was 16 µg/mL.
